For experiment [1], the target named is T1, Brd4 bromodomain 1 (BRD4(1)) (Homo sapiens, UniProt O60885).
T1 construct: made in house; host or cells: E. coli BL21(DE3)
In words: Inhibition of tetra-acetylated histone H4 binding to BET bromodomain (HTRF/FRET). Conditions: His-tagged bromodomain 200 nM, biotinylated tetra-acetylated histone H4 peptide, 2 h room temperature. As for the experimental part:
Proteins were cloned and overexpressed with a N-terminal 6×His tag, then purified by nickel affinity followed by size exclusion chromatography. Briefly, E. coli BL21(DE3) cells were transformed with a recombinant expression vector encoding N-terminally Nickel affinity tagged bromodomains from Brd2, Brd3, Brd4. Cell cultures were incubated at 37° C. with shaking to the appropriate density and induced overnight with IPTG. The supernatant of lysed cells was loaded onto Ni-IDA column for purification, Eluted protein was pooled, concentrated and further purified by size exclusion chromatography. Fractions representing monomeric protein were pooled, concentrated, aliquoted, and frozen at −80° C. for use in subsequent experiments.
Binding of tetra-acetylated histone H4 and BET bromodomains was confirmed by a Homogenous Time Resolved Fluorescence Resonance Energy Transfer (HTRF®) method, N-terminally His-tagged bromodomains (200 nM) and biotinylated tetra-acetylated histone H4 peptide (25-50 nM, Millipore) were incubated in the presence of Europium Cryptate-labeled streptavidin (Cisbio Cat, #610SAKLB) and XL665-labeled monoclonal anti-His antibody (Cisbio Cat.1461HISXLB) in a white 96 well microtiter plate (Greiner). For inhibition assays, serially diluted test compound was added to these reactions in a 0.2% final concentration of DMSO. Duplicate wells were used for each concentration tested. Final buffer concentrations were 30 mM HEPES pH 7.4, 30 mM NaCl, 0.3 mM CHAPS, 20 mM phosphate pH 7.0, 320 mM KF, 0.08% BSA. After a 2 h incubation at room temperature, fluorescence was measured at 665 and 620 nm with a SynergyH4 plate reader (Biotek). The binding inhibitory activity was shown by a decrease in […] relative to 620 nm fluorescence. IC50 values were determined from a dose response curve.

For the next experiment, the system named is cMYC. In words: Inhibition of cMYC expression in MV4-11 cells (real-time PCR). Format: cell-based, Human. Conditions: 3 h, cMYC mRNA; for IC50: Homo sapiens, read-out: c-myc activity. As for the experimental part:
MV4-11 cells (CRL-9591) were plated at a density of 2.5×10^4 cells per well in 96 well U-bottom plates and treated with increasing concentrations of test compound or DMSO (0.1%) in IMDM media containing 10% FBS and penicillin/streptomycin, and incubated for 3 h at 37° C. Triplicate wells were used for each concentration. Cells were pelleted by centrifugation and harvested using the mRNA Catcher PLUS kit according to manufacturer's instructions. The eluted mRNA isolated was then used in a one-step quantitative real-time PCR reaction, using components of the RNA UltraSense™ One-Step Kit (Life Technologies) together with Applied Biosystems TaqMan® primer-probes for cMYC and Cyclophilin, Real-time PCR plates were run on a ViiA™7 real time PCR machine (Applied Biosystems), data was analyzed, normalizing the Ct values for cMYC to an internal control, prior to determining the fold expression of each sample, relative to the control.

For a further experiment, the system named is Human AML MV-4-11 cells. The experiment in a line: Inhibition of cell proliferation in MV4-11 cells (CellTiter Aqueous One). Format: cell-based. Conditions: Homo sapiens, 72 h. As for the experimental part: MV4-11 cells (CRL-9591) were plated at a density of 5×10^4 cells per well in 96 well flat bottom plates and treated with increasing concentrations of test compound or DMSO (0.1%) in IMDM media containing 10% FBS and penicillin/streptomycin. Triplicate wells were used for each concentration and a well containing only media was used as a control. Plates were incubated at 37° C., 5% CO2 for 72 h before adding 20 μL of the CellTiter Aqueous One Solution (Promega) to each well and incubated at 37° C., 5% CO2 for an additional 3-4 h. The absorbance was read at 490 nm in a spectrophotometer and the percentage of cell titer relative to DMSO-treated cells was calculated after correcting for background by subtracting the blank well's signal. IC50 values were calculated using the GraphPad Prism software.

Another experiment relates to hIL-6. The experiment in a line: Inhibition of hIL-6 mRNA transcription in LPS-stimulated U937 cells. Type of experiment: cell-based, Human. The settings on record: 1 h pretreatment, LPS 3 h; for IC50: Homo sapiens, U-937, PMA-differentiated U937 cells, read-out: IL-6 activity. As for the experimental part:
Human leukemic monocyte lymphoma U937 cells (CRL-1593.2) were plated at a density of 3.2×10^4 cells per well in a 96-well plate in 100 μL RPMI-1640 containing 10% FBS and penicillin/streptomycin, and differentiated into macrophages for 3 days in 60 ng/mL PMA ([…]) at 37° C. in 5% CO2 prior to the addition of compound. The cells were pretreated for 1 h with increasing concentrations of test compound in 0.1% DMSO prior to stimulation with 1 ug/mL lipopolysaccharide from Escherichia coli. Triplicate wells were used for each concentration. The cells were incubated at 37° C., 5% CO2 for 3 h before the cells were harvested. At time of harvest, media was removed and cells were rinsed in 200 μL PBS. Cells were harvested using the mRNA Catcher PLUS kit according to manufacturer's instructions. The eluted mRNA was then used in a one-step quantitative real-time PCR reaction using components of the RNA UltraSense™ One-Step Kit (Life Technologies) together with Applied Biosystems TaqMan® primer-probes for hIL-6 and Cyclophilin. Real-time PCR plates were run on a ViiA™7 real time PCR machine (Applied Biosystems), data was analyzed, normalizing the Ct values for hIL-6 to an internal control, prior to determining the fold expression of each sample, relative to the control.

On to `COc1ncc(-c2c(C)noc2C)cc1NCc1ccc(C#N)s1` [Example 50, 5-(((5-(3,5-dimethylisoxazol-4-yl)-2-methoxypyridin-3-yl)amino)methyl)thiophene-2-carbonitrile], for which the IC50 was at most 300 nM in experiment [1], 300 to 3000 nM with cMYC and 3000 to 30000 nM with Human AML MV-4-11 cells. Moreover, in the experiment on hIL-6 (PMA-differentiated U937 cells), the IL-6 activity result is “Not Active”.
For the compound `COc1ncc(-c2c(C)noc2C)cc1Nc1c(C)nn(C)c1C` [Example 60, 5-(3,5-dimethylisoxazol-4-yl)-2-methoxy-N-(1,3,5-trimethyl-1H-pyrazol-4-yl)pyridin-3-amine], the IC50 in experiment [1] was at most 300 nM; with cMYC, at most 300 nM; in the experiment on Human AML MV-4-11 cells, 300 to 3000 nM; in the experiment on hIL-6, at most 300 nM.
For the compound `COc1ncc(-c2c(C)noc2C)cc1NCc1ccc(C#N)cc1F` [Example 28, 4-(((5-(3,5-dimethylisoxazol-4-yl)-2-methoxypyridin-3-yl)amino)methyl)-3-fluorobenzonitrile], the IC50 in experiment [1] was at most 300 nM; in the experiment on cMYC, 3000 to 30000 nM; in the experiment with Human AML MV-4-11 cells, 300 to 3000 nM; with hIL-6, 300 to 3000 nM.
In the case of `Cc1noc(C)c1-c1cnc(OC(C)C)c(NCc2ccccc2)c1` [Example 27, N-benzyl-5-(3,5-dimethylisoxazol-4-yl)-2-isopropoxypyridin-3-amine], the IC50 in experiment [1] is at most 300 nM; in the experiment on cMYC, 3000 to 30000 nM; in the experiment on Human AML MV-4-11 cells it was 3000 to 30000 nM; with hIL-6, 300 to 3000 nM.
As to `Cc1noc(C)c1-c1cnc(Oc2ccccc2)c(NCc2nccs2)c1` [Example 52, 5-(3,5-dimethylisoxazol-4-yl)-2-phenoxy-N-(thiazol-2-ylmethyl)pyridin-3-amine], the IC50 was at most 300 nM in experiment [1], 3000 to 30000 nM in the experiment with cMYC, 3000 to 30000 nM with Human AML MV-4-11 cells and 300 to 3000 nM in the experiment on hIL-6.
As for `COc1ncc(-c2c(C)noc2C)cc1NC(C)c1ccccc1` (stereo not drawn) [Example 5, 5-(3,5-dimethylisoxazol-4-yl)-2-methoxy-N-(1-phenylethyl)pyridin-3-amine], the IC50 (in experiment [1]; in the experiment with cMYC; in the experiment on Human AML MV-4-11 cells; in the experiment on hIL-6) was 300 to 3000 nM throughout.
Turning to `COc1ncc(-c2c(C)noc2C)cc1NCc1nccs1` [Example 41, 5-(3,5-dimethylisoxazol-4-yl)-2-methoxy-N-(thiazol-2-ylmethyl)pyridin-3-amine], the IC50 in experiment [1] is at most 300 nM; in the experiment on cMYC it was at most 300 nM; in the experiment with Human AML MV-4-11 cells, 300 to 3000 nM; with hIL-6 it was 300 to 3000 nM.
With `COc1ncc(-c2c(C)noc2C)cc1Oc1cc(C#N)ccc1C` [Example 65, 3-((5-(3,5-dimethylisoxazol-4-yl)-2-methoxypyridin-3-yl)oxy)-4-methylbenzonitrile], the IC50 in experiment [1] lay in the range of 300 to 3000 nM; in the experiment with cMYC, 3000 to 30000 nM; with Human AML MV-4-11 cells, 3000 to 30000 nM; with hIL-6 it was 300 to 3000 nM.
`COc1ncc(-c2c(C)noc2C)cc1Nc1cccc(F)c1` [Example 3, 5-(3,5-dimethylisoxazol-4-yl)-N-(3-fluorophenyl)-2-methoxypyridin-3-amine]: the IC50 is at most 300 nM in experiment [1], 300 to 3000 nM in the experiment on cMYC, 3000 to 30000 nM in the experiment with Human AML MV-4-11 cells and 300 to 3000 nM with hIL-6.
In the case of `CNc1ncc(-c2c(C)noc2C)cc1NCc1ccc(C#N)s1` [Example 54, 5-(((5-(3,5-dimethylisoxazol-4-yl)-2-(methylamino)pyridin-3-yl)amino)methyl)thiophene-2-carbonitrile], the IC50 in experiment [1] was at most 300 nM; with cMYC, 300 to 3000 nM; in the experiment on Human AML MV-4-11 cells it was 3000 to 30000 nM; in the experiment on hIL-6 it was 300 to 3000 nM.
Take `COc1ncc(-c2c(C)noc2C)cc1Nc1ccccc1F` [Example 18, 5-(3,5-dimethylisoxazol-4-yl)-N-(2-fluorophenyl)-2-methoxypyridin-3-amine]: the IC50 in experiment [1] was at most 300 nM; in the experiment with cMYC, 3000 to 30000 nM; in the experiment with Human AML MV-4-11 cells it was 3000 to 30000 nM; in the experiment on hIL-6, 300 to 3000 nM.
Take `COc1ncc(-c2c(C)noc2C)cc1Nc1ccc(F)cc1` [Example 19, 5-(3,5-dimethylisoxazol-4-yl)-N-(4-fluorophenyl)-2-methoxypyridin-3-amine]: the IC50 is at most 300 nM in experiment [1], 300 to 3000 nM in the experiment on cMYC, 300 to 3000 nM in the experiment on Human AML MV-4-11 cells and 300 to 3000 nM with hIL-6.
As to `COc1ncc(-c2c(C)noc2C)cc1OCc1ccsc1` [Example 37, 4-(6-methoxy-5-(thiophen-3-ylmethoxy)pyridin-3-yl)-3,5-dimethylisoxazole], the IC50 in experiment [1] is at most 300 nM; with cMYC, 300 to 3000 nM; in the experiment on Human AML MV-4-11 cells it was 300 to 3000 nM; with hIL-6, 300 to 3000 nM.
For `COc1ncc(-c2c(C)noc2C)cc1Oc1cccnc1C` [Example 66, 4-(6-methoxy-5-((2-methylpyridin-3-yl)oxy)pyridin-3-yl)-3,5-dimethylisoxazole], the IC50 in experiment [1] is 300 to 3000 nM; with cMYC, 3000 to 30000 nM; with Human AML MV-4-11 cells, 3000 to 30000 nM; in the experiment with hIL-6, 300 to 3000 nM.
`Cc1noc(C)c1-c1cnc(Oc2ccccc2)c(NCc2ccccc2)c1` [Example 38, N-benzyl-5-(3,5-dimethylisoxazol-4-yl)-2-phenoxypyridin-3-amine]: the IC50 in experiment [1] is at most 300 nM; in the experiment on cMYC, 300 to 3000 nM; in the experiment on Human AML MV-4-11 cells it was 3000 to 30000 nM; in the experiment on hIL-6, 300 to 3000 nM.
For the compound `COc1ncc(-c2c(C)noc2C)cc1OCc1ccc(C#N)cc1` [Example 30, 4-(((5-(3,5-dimethylisoxazol-4-yl)-2-methoxypyridin-3-yl)oxy)methyl)benzonitrile], the figures for the IC50 (in experiment [1]; in the experiment on Human AML MV-4-11 cells; with hIL-6) were at most 300 nM, 3000 to 30000 nM and 3000 to 30000 nM, respectively. For the same compound, the c-myc activity entry with cMYC is “Not Active”.
For `COc1ncc(-c2c(C)noc2C)cc1NCc1cccc2ncccc12` [Example 58, 5-(3,5-dimethylisoxazol-4-yl)-2-methoxy-N-(quinolin-5-ylmethyl)pyridin-3-amine], the IC50 in experiment [1] was at most 300 nM; in the experiment on cMYC, 300 to 3000 nM; in the experiment with Human AML MV-4-11 cells, 300 to 3000 nM; in the experiment on hIL-6, 300 to 3000 nM.
For the compound `COc1ncc(-c2c(C)noc2C)cc1NCc1cnoc1` [Example 42, 5-(3,5-dimethylisoxazol-4-yl)-N-(isoxazol-4-ylmethyl)-2-methoxypyridin-3-amine], the IC50 in experiment [1] was at most 300 nM; in the experiment with cMYC, 300 to 3000 nM; with Human AML MV-4-11 cells it was 3000 to 30000 nM; in the experiment with hIL-6, 300 to 3000 nM.

(Values after patent publication US10179125B2, “Substituted pyridines as bromodomain inhibitors” (Zenith Epigenetics Ltd., priority 2014, dated 2019).)
